Earlier results as cited in patent US10610528B2, “Solid oral film dosage forms and methods for making same” (Intelgenx Corp., priority 2009, dated 2020).

Solubility in water: practically insoluble in water
Structure (SMILES): CN1CC(=O)N2[C@H](c3ccc4c(c3)OCO4)c3[nH]c4ccccc4c3C[C@@H]2C1=O [Tadalafil]
